From publication PMC10641813 (Journal of Medicinal Chemistry, 2023)
Where “and” joins values, the source holds several entries; their conditions need not be identical. Identical values can stand only once.

How the values were obtained:
[1] = system: HCT116 cells; experiment: Inhibition of growth of HCT116 cells (MTT); details: read-out: IC50 HCT116; human colorectal carcinoma cells; combinations: each compound at its IC50 concentration
Experimental: (§7) In drug combination studies, each compound was used at the corresponding IC50 concentration.
(§8) Cells were grown in Dulbecco’s modified Eagle’s medium (D-MEM) supplemented with 10% fetal bovine serum (FBS) at 37 °C with 5% CO2. In all experiments, 300,000 cells were plated in 9 cm^2 dishes and exposed to test compound dissolved in DMSO (0.1% final concentration) at the indicated concentrations. […] Cells were kept at low passage, returning to the original frozen stocks every 3–4 months.

[2] = system: Wnt/β-catenin signaling pathway; experiment: Wnt reporter assay (TOPFlash/FOPFlash luciferase) in HEK293T cells; details: HEK 293T cells, LiCl 50 mM
Experimental: HEK293T cells were seeded at 2 × 10^4 cells/cm^2 in triplicate in a 24-well plate.

[3] = system: MCF-7 cells; experiment: Inhibition of growth of MCF-7 cells; assay type: cell-based, human; details: human nonmetastatic breast cancer epithelial cells
Experimental: (§1) ; 11 and 15, NCI/ADR-RES and OVCAR-8 cells) to 4.8 (19, OVCAR-8 cells). […] . […] Cells were seeded in 96-well plates.

[4] = system: tubulin; experiment: Tubulin assembly (polymerization) assay; assay type: biochemical; details: at 20 μM
Experimental: The reaction mixtures contained 0.8 M monosodium glutamate (pH 6.6 with HCl in a 2 M stock solution), 10 μM tubulin, 4% (v/v) DMSO, and varying concentrations of compound. […] The extent of the reaction was measured.

[5] = system: human primary T lymphocytes; experiment: Toxicity on human primary T lymphocytes (annexin V/propidium iodide flow cytometry); details: 30 μM, 72 h, healthy/normal T cells
Experimental: After 72 h, the frequency of late apoptotic cells was assayed by staining with annexin V and propidium iodide.
Potential toxicity on healthy cells was evaluated by treating human primary T lymphocytes from two healthy donors with 30 μM 15 or with a control vehicle (DMSO). Healthy donors’ peripheral blood mononuclear cells (PBMCs) were isolated by Lymphoprep (Nycomed) gradient centrifugation. T lymphocytes were negatively selected from PBMCs using magnetic Dynabeads Untouched Human T Cells Kit (Thermo Fisher Scientific) following the manufacturer’s instructions. Apoptotic cell death was evaluated using APC Annexin-V Apoptosis Detection Kit with PI (Thermo Fisher Scientific). […] Cells were then stained using annexin-V/APC and propidium iodide according to the manufacturer’s instruction. Cell populations were acquired using a FACS Canto II flow cytometer (BD Biosciences). Flow cytometric analysis was performed using Flow Jo Flow Cytometric Analysis Software.

[6] = system: MDA-MB 231 cells; experiment: Inhibition of MDA-MB 231 TNBC cell growth (hypoxia, cell counting); details: 72 h, 1% O2
Experimental: (§9) Cells were grown in Dulbecco’s modified Eagle’s medium (D-MEM) supplemented with 10% fetal bovine serum (FBS) at 37 °C with 5% CO2. In all experiments, 300,000 cells were plated in 9 cm^2 dishes and exposed to test compound dissolved in DMSO (0.1% final concentration) at the indicated concentrations. […] Cells were kept at low passage, returning to the original frozen stocks every 3–4 months. Hypoxic culture conditions were realized in the presence of 1% O2 and 5% CO2. […] After 72 h of incubation at 37 °C with 1% O2 and 5% CO2, cells were trypsinized, and cell counting was performed with the MACSQuant analyzer (Miltenyi Biotec).[76]

[7] = molecular target: T1, P-gp (Homo sapiens, UniProt P08183); experiment: P-gp ATPase activity, protein immunopurified from MDCK/P-gp cells; details: for Pgp activity (rate of ATP hydrolysis) MDCK-Pgp: 3 h, single replicates of I-III exp
Experimental: (§10) 100 μg of each immunopurified protein was incubated for 30 min at 37 °C with 50 μL of the reaction mixture (25 mM Tris/HCl, 3 mM ATP, 50 mM KCl, 2.5 mM MgSO4, 3 mM dithiothreitol, 0.5 mM EGTA, 2 mM ouabain, 3 mM NaN3; pH 7.0). […] After 30 min incubation at room temperature, the absorbance of the phosphate hydrolyzed from ATP was measured at 620 nm, using a Packard EL340 microplate reader. The absorbance was converted into nmoles hydrolyzed phosphate (Pi)/min/mg protein, according to the titration curve previously prepared.

[8] = system: MDCK/P-gp cells; experiment: Viability of MDCK/P-gp cells with DOX alone or coincubated with 15 (WST-1); assay type: cell-based, canine; details: 15 at 1, 10, 100 nM coincubated with 5 μM DOX, 72 h
Experimental: (§2) Cells were seeded in 96-well plates.

[9] = system: HT29/DX cells; experiment: Viability of HT29/DX cells with DOX alone or coincubated with 15 (WST-1); assay type: cell-based, human; details: 15 at 1, 10, 100 nM coincubated with 5 μM DOX, 72 h
Experimental: as §2

[10] = system: SW480 cells; experiment: Inhibition of growth of SW480 cells (XTT); details: read-out: IC50 SW480; human colorectal carcinoma cells; combinations: each compound at its IC50 concentration
Experimental: as §7, §8

[11] = system: HT29, HT29/DX, MDCK and MDCK/P-gp cells; experiment: Cytotoxicity of 15 alone (WST-1 viability); details: 1–100 nM 15 alone, 72 h, four cell lines
Experimental: Cell lines were obtained from the American Tissue Culture Collection (ATCC), unless specified otherwise. Cells were grown in Dulbecco’s modified Eagle’s medium (D-MEM) supplemented with 10% fetal bovine serum (FBS) at 37 °C with 5% CO2. In all experiments, 300,000 cells were plated in 9 cm^2 dishes and exposed to test compound dissolved in DMSO (0.1% final concentration) at the indicated concentrations. […] Cells were kept at low passage, returning to the original frozen stocks every 3–4 months. […] Human chemosensitive HT29 colon cancer cells were purchased from ATCC (Manassas, VA). […] MDCK and MDCK/P-gp (a gift of Prof. P. Borst, NKI-AVL Institute, Amsterdam, The Netherlands) were grown in DMEM high glucose supplemented with 10% FBS, 1% penicillin, 1% v/v penicillin–streptomycin, and 1% v/v glutamine. […] Cells were seeded in 96-well plates. […] Cell viability was evaluated using the WST-1 assay (Sigma-Merck), as per the manufacturer’s instructions, using a Packard EL340 microplate reader (Bio-Tek Instruments, Winooski, VT). The absorbance units of the untreated cells were considered 100%; the absorbance units of the other experimental conditions were expressed as a percentage versus the absorbance units of the untreated cells.

[12] = system: β-catenin and MYC in HCT116 cells; experiment: β-Catenin and c-Myc levels in HCT116 cells (Western blot); assay type: cell-based, human; details: LiCl 50 mM, 24 h
Experimental: (§3) Western blot was performed as previously described.[79] […] Cell lysates were subjected to SDS-polyacrylamide gel electrophoresis and transferred to a nitrocellulose membrane. The membrane was blocked, washed, and incubated with primary antibodies at 37 °C overnight [anti-β-catenin (D10A8) XP mAb #8480 (Cell Signaling), anti-cMyc #9402S (Cell Signaling), anticleaved caspase 3 (Asp175) #9661 (Cell Signaling), and anti-PARP #9542S (Cell Signaling)]. After the membrane was washed, it was incubated with secondary antibodies at 37 °C for 30 min. The membrane was washed again with Tris-buffered saline/Tween-20, and the samples were exposed and imaged using the WesternBright ECL solution (#K-12045-D50 Advansta).

[13] = system: MDCK/P-gp cells; experiment: Intracellular accumulation of DOX in MDCK/P-gp cells; assay type: cell-based, canine; details: 5 μM DOX 3 h, 15 at 1, 10, 100 nM
Experimental: (§4) In this model, also at the highest concentration (100 nM), the compound was not able to fully restore the accumulation of the drug to the intracellular level of MDCK cells, which were devoid of P-gp.
(§5) Figure S5. Dose-dependent viability of HT29 and HT29/DX (A), MDCK and MDCK/P-gp (B) cells, incubated with increasing concentrations (0-10 µM) of 15 for 72 h, measured with a spectrophotometric assay. Data are means ± SD (n = 3). **p<0.01, ***p<0.001: versus untreated cells (“0”). […]
(§6) drug retention was measured spectrofluorimetrically. Data are means ± SD (n=3)., ***p<0.001: versus HT29 or […]

[14] = molecular target: T1, P-gp; experiment: P-gp ATPase activity, protein immunopurified from HT29/DX cells; details: for Pgp activity (rate of ATP hydrolysis) HT29/DX: 3 h, single replicates of I-III exp
Experimental: as §10

[15] = system: OVCAR-8 cells; experiment: Inhibition of growth of OVCAR-8 cells; assay type: cell-based, human; details: ovarian tumor cell line 8, 96 h
Experimental: as §1

[16] = system: cleaved PARP and cleaved caspase-3 in HCT116 cells; experiment: Markers of apoptosis in HCT116 cells (Western blot); assay type: cell-based, human; details: increasing concentrations, 72 h
Description: Detection of cleaved poly(ADPribose) polymerase (PARP) by antibodies is considered a prominent marker of apoptosis. […] Overexpression of the 24 kDa N-terminal fragment inhibits DNA repair and ADPribose formation and stimulates apoptosis,[45] with consequent increase of PARP full-length/cleaved ratio and a darker cleaved band. During apoptosis, caspase-3 is a major cause of proteolysis. Detection of cleaved caspase-3 is also a reliable marker of apoptosis since it allows the quantification of cells that are dying or have died by apoptosis.[46]
as §3

[17] = system: HT29/DX cells; experiment: Intracellular accumulation of DOX in HT29/DX cells; assay type: cell-based, human; details: 5 μM DOX 3 h, 15 at 1, 10, 100 nM
Experimental: as §4, §5, §6

[18] = system: SW620 cells; experiment: Inhibition of growth of SW620 cells (XTT); details: read-out: IC50 SW620; human colorectal carcinoma cells; combinations: each compound at its IC50 concentration
Experimental: as §7, §8

[19] = molecular target: T2, hCA IX (Homo sapiens, UniProt Q16790); experiment: Stopped flow CO2 hydrase assay, hCA IX; assay type: biochemical; details: stopped flow technique, mean from three assays
T2 construct: made in house

[20] = system: HT29 cells; experiment: Viability of HT29 cells with DOX alone or coincubated with 15 (WST-1); assay type: cell-based, human; details: 15 at 1, 10, 100 nM coincubated with 5 μM DOX, 72 h
Experimental: as §2

[21] = system: Wnt target genes Fgf20 and Sall4; experiment: Fgf20 and Sall4 mRNA levels in HCT116 cells (qPCR); assay type: cell-based, human
Experimental: Total mRNA was isolated from cells with TriReagent (#R2050–1–200 Zymo Research), and complementary DNA (cDNA) was synthesized by the Sensifast cDNA synthesis kit (#BIO-65054 Bioline). Quantitative PCR was performed with SensiFast Sybr Lo-Rox Mix (#BIO-94020 Bioline), using an Applied Biosystems ViiA 7 Real-Time PCR System instrument (doi: 10.1038/s41389-019-0175-6) and the following amplification primers: • β-actin forward: […]; • β-actin reverse: […]; • Fgf20 forward: […]; • Fgf20 reverse: […]; • Sall4 forward: […]; • Sall4 reverse: […].

[22] = system: NCI/ADR-RES cells; experiment: Inhibition of growth of NCI/ADR-RES DOX-resistant cells; assay type: cell-based, human; details: DOX-resistant cell line derived from OVCAR-8, 96 h
Experimental: as §1

[23] = system: BT-549 cells; experiment: Inhibition of BT-549 TNBC cell growth (hypoxia, cell counting); details: 72 h, 1% O2
Experimental: as §9

[24] = system: MDCK cells; experiment: Viability of MDCK cells with DOX alone or coincubated with 15 (WST-1); assay type: cell-based, canine; details: MDCK cells, 15 at 1, 10, 100 nM coincubated with 5 μM DOX, 72 h
Experimental: as §2

T1 sequence (P08183 whole entry): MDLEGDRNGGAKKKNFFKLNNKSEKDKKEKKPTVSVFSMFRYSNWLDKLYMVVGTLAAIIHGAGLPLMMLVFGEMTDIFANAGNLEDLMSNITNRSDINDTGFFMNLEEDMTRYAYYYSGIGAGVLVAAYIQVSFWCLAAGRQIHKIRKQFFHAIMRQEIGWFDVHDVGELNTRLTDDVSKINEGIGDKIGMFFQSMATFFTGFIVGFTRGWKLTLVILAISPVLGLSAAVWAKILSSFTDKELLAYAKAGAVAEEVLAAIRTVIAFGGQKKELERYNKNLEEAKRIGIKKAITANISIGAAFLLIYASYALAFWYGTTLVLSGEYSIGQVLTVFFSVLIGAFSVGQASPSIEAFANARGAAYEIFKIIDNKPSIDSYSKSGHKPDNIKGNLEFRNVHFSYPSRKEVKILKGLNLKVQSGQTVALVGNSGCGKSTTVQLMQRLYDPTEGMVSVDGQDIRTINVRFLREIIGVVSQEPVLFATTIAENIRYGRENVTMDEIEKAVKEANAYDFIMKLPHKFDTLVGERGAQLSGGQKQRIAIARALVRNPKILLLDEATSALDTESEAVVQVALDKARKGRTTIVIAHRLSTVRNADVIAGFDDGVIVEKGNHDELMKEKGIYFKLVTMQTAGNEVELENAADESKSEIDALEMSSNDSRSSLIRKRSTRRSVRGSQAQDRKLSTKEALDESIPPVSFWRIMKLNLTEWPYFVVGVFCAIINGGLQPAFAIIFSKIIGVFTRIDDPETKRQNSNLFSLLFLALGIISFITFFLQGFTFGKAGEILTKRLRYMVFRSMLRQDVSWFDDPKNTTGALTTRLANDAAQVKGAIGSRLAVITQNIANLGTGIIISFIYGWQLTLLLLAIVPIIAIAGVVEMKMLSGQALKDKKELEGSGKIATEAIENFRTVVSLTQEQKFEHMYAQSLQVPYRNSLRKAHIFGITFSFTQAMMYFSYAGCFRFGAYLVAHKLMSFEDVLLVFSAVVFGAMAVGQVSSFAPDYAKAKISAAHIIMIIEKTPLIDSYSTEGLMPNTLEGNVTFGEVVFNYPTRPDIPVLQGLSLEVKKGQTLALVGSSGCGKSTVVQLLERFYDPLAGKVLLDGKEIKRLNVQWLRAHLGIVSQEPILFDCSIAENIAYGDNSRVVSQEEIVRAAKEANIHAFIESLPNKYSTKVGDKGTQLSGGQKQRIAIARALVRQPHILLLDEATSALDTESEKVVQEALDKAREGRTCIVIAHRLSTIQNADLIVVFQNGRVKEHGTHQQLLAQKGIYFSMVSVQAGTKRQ

4-(3-Phenyl-4-(3,4,5-trimethoxybenzoyl)-1H-pyrrol-1-yl)benzenesulfonamide [Compound 15]
IC50 [1]: 8.7 ± 1.4 µM
TOP reporter activity ([2]; increasing concentrations, 24 h): significant and dose-dependent inhibition
FOP reporter activity ([2]; negative control reporter): did not significantly prevent the activity
IC50 [3]: 1.9 to 2.1 µM and 1.9 µM
inhibition of tubulin assembly [4]: partial inhibition
increase in cell death compared to the control vehicle [5]: 6–8%
Inhibition of MDA-MB 231 TNBC cell growth [6]: potent antiproliferative effect
Pgp activity (rate of ATP hydrolysis) MDCK-Pgp ([7]; 15 at 1 nM): 5.2 nmol Pi × min-1 × mg protein-1 and 5.6 nmol Pi × min-1 × mg protein-1 (2×) and 5.4 nmol Pi × min-1 × mg protein-1 (2×) and 5.5 nmol Pi × min-1 × mg protein-1 and 5.9 nmol Pi × min-1 × mg protein-1 and 5.1 nmol Pi × min-1 × mg protein-1 and 5.3 nmol Pi × min-1 × mg protein-1
Pgp activity (rate of ATP hydrolysis) MDCK-Pgp ([7]; 15 at 10 nM): 3.4 nmol Pi × min-1 × mg protein-1 (3×) and 3.2 nmol Pi × min-1 × mg protein-1 (3×) and 3.0 nmol Pi × min-1 × mg protein-1 and 3.9 nmol Pi × min-1 × mg protein-1 and 3.8 nmol Pi × min-1 × mg protein-1
Pgp activity (rate of ATP hydrolysis) MDCK-Pgp ([7]; 15 at 100 nM): 2.1 nmol Pi × min-1 × mg protein-1 and 2.4 nmol Pi × min-1 × mg protein-1 (2×) and 2.3 nmol Pi × min-1 × mg protein-1 and 1.6 nmol Pi × min-1 × mg protein-1 and 1.8 nmol Pi × min-1 × mg protein-1 (2×) and 1.7 nmol Pi × min-1 × mg protein-1 and 1.5 nmol Pi × min-1 × mg protein-1
effect on P-gp activity ([7]; MDCK/P-gp, starting at 10 nM): reduced P-gp activity
cell viability compared with DOX alone [8]: decreased cell viability in a dose-dependent manner
cell viability compared with DOX alone [9]: decreased cell viability in a dose-dependent manner
IC50 [10]: 17.7 ± 1.3 µM
cell viability [11]: > 75%
β-catenin and MYC levels [12]: marked reduction
intracellular accumulation of DOX [13]: increasing DOX accumulation
Pgp activity (rate of ATP hydrolysis) HT29/DX ([14]; 15 at 1 nM): 0.7 nmol Pi × min-1 × mg protein-1 (2×) and 0.8 nmol Pi × min-1 × mg protein-1 (3×) and 0.9 nmol Pi × min-1 × mg protein-1 and 0.6 nmol Pi × min-1 × mg protein-1 (2×) and 1.0 nmol Pi × min-1 × mg protein-1
Pgp activity (rate of ATP hydrolysis) HT29/DX ([14]; 15 at 10 nM): 0.4 nmol Pi × min-1 × mg protein-1 (3×) and 0.6 nmol Pi × min-1 × mg protein-1 (3×) and 0.5 nmol Pi × min-1 × mg protein-1 (2×) and 0.7 nmol Pi × min-1 × mg protein-1
Pgp activity (rate of ATP hydrolysis) HT29/DX ([14]; 15 at 100 nM): 0.1 nmol Pi × min-1 × mg protein-1 and 0.2 nmol Pi × min-1 × mg protein-1 (3×) and 0.3 nmol Pi × min-1 × mg protein-1 (5×)
effect on P-gp activity ([14]; HT29/DX, starting at 10 nM): reduced P-gp activity
IC50 [15]: 1.9 to 2.1 µM and 1.9 µM
cleaved PARP and cleaved caspase-3 levels [16]: increments of cleaved PARP and cleaved caspase-3
intracellular accumulation of DOX [17]: strong dose-dependent increase
IC50 [18]: 23.8 ± 1.4 µM
Ki [19]: 0.0241 µM
cell viability compared with DOX alone [20]: did not further reduce cell viability
expression of Wnt target genes Fgf20 and Sall4 [21]: significantly reduced the expression
IC50 [22]: 1.9 µM and 1.9 to 2.1 µM and 2.1 µM
Inhibition of BT-549 TNBC cell growth [23]: significantly impaired cell growth
cell viability compared with DOX alone [24]: did not further reduce cell viability
